According to ChEMBL document CHEMBL5241122, “A concise review on marine bromopyrrole alkaloids as anticancer agents” (Bioorg Med Chem Lett, 2023):
pEC50, pIC50: −log10 of the molar value. Blank lines part the entries; values can stand above or below the compound they belong to.

What was measured:
[1] = system: L1210; assay: Cytotoxicity against mouse L1210 cells; assay type: functional, cell-based
[2] = system: NCI-H460; assay: Inhibition of cell growth in human NCI-H460 cells by SRB assay; assay type: functional; conditions: read-out: ED50 (the source's name)
[3] = system: OVCAR-3; assay: Inhibition of cell growth in human OVCAR-3 cells by SRB assay; assay type: functional; conditions: read-out: ED50 (the source's name)
[4] = system: SK-MEL-5; assay: Inhibition of cell growth in human SK-MEL-5 cells by SRB assay; assay type: functional; conditions: read-out: ED50 (the source's name)
[5] = system: A498; assay: Inhibition of cell growth in human A498 cells by SRB assay; assay type: functional; conditions: read-out: ED50 (the source's name)
[6] = system: KM-20L2; assay: Inhibition of cell growth in human KM-20L2 cells by SRB assay; assay type: functional; conditions: read-out: ED50 (the source's name)
[7] = system: SF-295; assay: Inhibition of cell growth in human SF-295 cells by SRB assay; assay type: functional; conditions: read-out: ED50 (the source's name)
[8] = system: CNE; assay: Cytotoxicity against human CNE cells incubated for 72 hrs by MTT assay; assay type: functional, cell-based
[9] = system: LoVo; assay: Cytotoxicity against human LoVo cells incubated for 72 hrs by MTT assay; assay type: functional, cell-based
[10] = system: HeLa; assay: Cytotoxicity against human HeLa cells incubated for 72 hrs by MTT assay; assay type: functional, cell-based
[11] = system: HepG2; assay: Cytotoxicity against human HepG2 cells incubated for 72 hrs by MTT assay; assay type: functional, cell-based; conditions: HepG2, 72 h
[12] = system: MCF7; assay: Cytotoxicity against human MCF7 cells incubated for 72 hrs by MTT assay; assay type: functional, cell-based; conditions: MCF7, 72 h
[13] = system: Bel-7402; assay: Cytotoxicity against human Bel-7402 cells incubated for 72 hrs by MTT assay; assay type: functional, cell-based; conditions: Bel-7402, 72 h
[14] = Inhibition of recombinant human MAPK expressed in Escherichia coli assessed as reduction in MEK-1 phosphorylation incubated for 60 mins by ELISA assay
[15] = system: LoVo; assay: Inhibition of cell growth in human LoVo cells by SRB assay; assay type: functional, cell-based
[16] = molecular target: Cyclin-dependent kinase 4 (Homo sapiens, UniProt P11802); assay: Inhibition of CDK4 (unknown origin)
[17] = molecular target: Receptor tyrosine-protein kinase erbB-2 (Homo sapiens, UniProt P04626); assay: Inhibition of c-ErbB-2 (unknown origin)
[18] = system: P388; assay: Cytotoxicity against mouse P388 cells; assay type: functional, cell-based
[19] = system: Jurkat; assay: Antiinflammatory activity in PMA induced human Jurkat cells assessed as inhibition of IL-2 production by EIA assay; assay type: functional, cell-based
[20] = system: WRL68; assay: Cytotoxicity against human WRL68 cells by MTT assay; assay type: functional, cell-based
[21] = system: MCF7; assay: Cytotoxicity against human MCF7 cells by MTT assay; assay type: functional, cell-based
[22] = system: Caco-2; assay: Cytotoxicity against human Caco-2 cells by MTT assay; assay type: functional, cell-based
[23] = molecular target: E3 ubiquitin-protein ligase CBL-B (Homo sapiens, UniProt Q13191); assay: Inhibition of Cbl-b (unknown origin) assessed as inhibition of Cbl-b dependent ubiquitination in presence of ATP measured after 13 hrs by fluorescence microplate reader assay
[24] = system: SK-HEP1; assay: Antiproliferative activity against human SK-HEP1 cells incubated for 72 hrs by SRB assay; assay type: functional, cell-based; conditions: SK-HEP1, 72 h
[25] = system: HCT-116; assay: Antiproliferative activity against human HCT-116 cells incubated for 72 hrs by SRB assay; assay type: functional, cell-based; conditions: HCT-116, 72 h
[26] = system: SNU-638; assay: Antiproliferative activity against human SNU-638 cells incubated for 72 hrs by SRB assay; assay type: functional, cell-based; conditions: SNU-638, 72 h
[27] = system: A549; assay: Antiproliferative activity against human A549 cells incubated for 72 hrs by SRB assay; assay type: functional, cell-based; conditions: A549, 72 h
[28] = system: K562; assay: Antiproliferative activity against human K562 cells incubated for 72 hrs by SRB assay; assay type: functional, cell-based; conditions: K562, 72 h
[29] = system: MDA-MB-231; assay: Antiproliferative activity against human MDA-MB-231 cells incubated for 72 hrs by SRB assay; assay type: functional, cell-based; conditions: MDA-MB-231, 72 h
[30] = system: HT-29; assay: Cytotoxicity against human HT-29 cells assessed as cell growth inhibition by cell based assay; assay type: functional
[31] = system: A549; assay: Cytotoxicity against human A549 cells assessed as cell growth inhibition by cell based assay; assay type: functional
[32] = system: PSN1; assay: Cytotoxicity against human PSN1 cells assessed as cell growth inhibition by cell based assay; assay type: functional
[33] = system: MDA-MB-231; assay: Cytotoxicity against human MDA-MB-231 cells assessed as cell growth inhibition by cell based assay; assay type: functional
[34] = system: KB; assay: Cytotoxicity against human KB cells; assay type: functional, cell-based
[35] = system: K562; assay: Cytotoxicity against human K562 cells; assay type: functional, cell-based

Sequence of E3 ubiquitin-protein ligase CBL-B (Q13191 whole entry): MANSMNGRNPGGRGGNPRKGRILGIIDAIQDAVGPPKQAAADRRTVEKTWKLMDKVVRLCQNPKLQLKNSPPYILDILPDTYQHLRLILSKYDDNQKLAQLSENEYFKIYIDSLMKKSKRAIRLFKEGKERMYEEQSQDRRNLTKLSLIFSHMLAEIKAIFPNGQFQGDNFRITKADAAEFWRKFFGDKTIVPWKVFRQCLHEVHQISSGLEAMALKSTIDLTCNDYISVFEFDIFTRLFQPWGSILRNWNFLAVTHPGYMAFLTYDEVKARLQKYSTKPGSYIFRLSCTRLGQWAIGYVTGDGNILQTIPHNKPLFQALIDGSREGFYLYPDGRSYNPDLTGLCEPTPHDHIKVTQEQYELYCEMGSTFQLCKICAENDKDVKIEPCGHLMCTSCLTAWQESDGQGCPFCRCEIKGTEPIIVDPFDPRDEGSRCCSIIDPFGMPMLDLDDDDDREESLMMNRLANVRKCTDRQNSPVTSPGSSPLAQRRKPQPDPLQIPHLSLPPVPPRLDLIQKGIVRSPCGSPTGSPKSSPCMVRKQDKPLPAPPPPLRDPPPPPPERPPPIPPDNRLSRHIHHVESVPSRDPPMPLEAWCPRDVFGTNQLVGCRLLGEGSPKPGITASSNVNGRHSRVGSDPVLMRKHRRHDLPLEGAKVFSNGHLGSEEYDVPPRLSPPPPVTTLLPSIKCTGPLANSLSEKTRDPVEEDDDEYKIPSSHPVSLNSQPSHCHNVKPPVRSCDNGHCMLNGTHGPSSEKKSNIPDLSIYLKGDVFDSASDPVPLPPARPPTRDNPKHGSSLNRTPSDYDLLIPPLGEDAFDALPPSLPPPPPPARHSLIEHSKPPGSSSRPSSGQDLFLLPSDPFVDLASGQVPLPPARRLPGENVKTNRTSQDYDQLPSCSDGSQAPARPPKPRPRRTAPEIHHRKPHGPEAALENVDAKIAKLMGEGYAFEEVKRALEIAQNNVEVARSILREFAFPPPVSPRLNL
Sequence of Cyclin-dependent kinase 4 (P11802 whole entry): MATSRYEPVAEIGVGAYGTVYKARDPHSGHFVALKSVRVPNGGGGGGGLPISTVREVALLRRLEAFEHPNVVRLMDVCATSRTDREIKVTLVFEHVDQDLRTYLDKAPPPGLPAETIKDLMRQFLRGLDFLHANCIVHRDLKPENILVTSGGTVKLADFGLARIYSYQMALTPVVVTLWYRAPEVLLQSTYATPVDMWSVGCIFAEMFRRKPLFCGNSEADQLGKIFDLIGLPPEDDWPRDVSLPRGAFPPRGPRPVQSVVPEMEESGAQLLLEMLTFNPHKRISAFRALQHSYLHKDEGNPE
Sequence of Receptor tyrosine-protein kinase erbB-2 (P04626 whole entry): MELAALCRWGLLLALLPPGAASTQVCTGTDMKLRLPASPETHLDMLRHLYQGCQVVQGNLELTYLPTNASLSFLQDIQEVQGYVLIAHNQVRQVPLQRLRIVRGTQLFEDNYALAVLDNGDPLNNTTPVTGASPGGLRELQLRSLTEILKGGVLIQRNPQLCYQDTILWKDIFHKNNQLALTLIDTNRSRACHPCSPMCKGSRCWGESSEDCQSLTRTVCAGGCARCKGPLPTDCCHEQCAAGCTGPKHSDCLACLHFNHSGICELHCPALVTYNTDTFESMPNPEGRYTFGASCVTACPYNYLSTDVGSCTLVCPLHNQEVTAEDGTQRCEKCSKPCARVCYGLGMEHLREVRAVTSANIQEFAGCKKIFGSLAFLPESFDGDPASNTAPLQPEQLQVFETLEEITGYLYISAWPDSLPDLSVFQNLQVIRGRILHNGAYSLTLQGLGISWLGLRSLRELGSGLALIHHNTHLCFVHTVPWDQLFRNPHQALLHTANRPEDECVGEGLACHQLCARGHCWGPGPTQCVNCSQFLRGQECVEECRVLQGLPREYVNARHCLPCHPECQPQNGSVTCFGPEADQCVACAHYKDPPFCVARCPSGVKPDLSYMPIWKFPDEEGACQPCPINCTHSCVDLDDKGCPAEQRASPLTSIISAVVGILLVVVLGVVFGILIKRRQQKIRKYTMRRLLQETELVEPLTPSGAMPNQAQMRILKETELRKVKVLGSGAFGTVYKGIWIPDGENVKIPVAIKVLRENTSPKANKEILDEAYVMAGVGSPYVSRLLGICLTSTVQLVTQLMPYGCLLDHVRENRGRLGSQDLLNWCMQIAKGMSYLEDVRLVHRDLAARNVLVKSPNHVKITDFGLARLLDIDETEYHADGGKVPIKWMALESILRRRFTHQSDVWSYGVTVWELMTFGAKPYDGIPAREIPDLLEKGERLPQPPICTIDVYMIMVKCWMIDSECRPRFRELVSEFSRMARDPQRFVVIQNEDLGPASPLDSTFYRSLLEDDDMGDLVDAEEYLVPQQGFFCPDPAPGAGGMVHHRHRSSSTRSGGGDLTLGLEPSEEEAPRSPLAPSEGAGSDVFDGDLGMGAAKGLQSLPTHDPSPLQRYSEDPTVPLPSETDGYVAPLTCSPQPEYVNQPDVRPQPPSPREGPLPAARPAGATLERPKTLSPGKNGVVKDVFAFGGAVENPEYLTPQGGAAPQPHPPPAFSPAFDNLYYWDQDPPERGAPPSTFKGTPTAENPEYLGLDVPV

Compound: CO[C@]12C[C@@H](CNC(=O)c3cc(Br)c[nH]3)O[C@H]1NC(=O)N2
pIC50 [1]: 4.71

Compound: CO[C@@]12C[C@@H](CNC(=O)c3cc(Br)c[nH]3)O[C@@H]1NC(=O)N2
pIC50 [1]: 4.68

Compound: COC(=O)C(NCC(=O)c1cc(Br)c(Br)[nH]1)C(C)C (stereo not given)
pIC50 [8]: 4.36
pIC50 [9]: 6.02
pIC50 [10]: 4.86
pIC50 [11]: 4.82
pIC50 [12]: 4.54
pIC50 [13]: 4.56

Compound: N=C1NC(=O)/C(=C2/CCNC(=O)c3[nH]c(Br)c(Br)c32)N1
pIC50 [16]: 4.01
pIC50 [17]: 4.68

Compound: COCNC(=O)c1cc(Br)c(Br)[nH]1
pEC50 ([18]; read-out: ED50 (the source's name)): 4.16

Compound: Cc1ccccc1NC(=S)NNC(=O)c1cc(Br)c(Br)n1C
pIC50 [20]: 7.15
pIC50 [21]: 7.15
pIC50 [22]: 7.15

Compound: CN1C(=O)C[C@H](C(N)=O)NC(=O)C(O)CNC(=O)[C@H](CNC(=O)c2cc(Br)c(Br)[nH]2)NC(=O)[C@H](CN)NC(=O)C1Cc1cnc(Cl)[nH]1 (stereo not given in full)
GI50 [30]: > 12 µM
GI50 [31]: > 12 µM
GI50 [32]: > 12 µM
GI50 [33]: > 12 µM

Compound: NC1NC(/C=C/CNC(=O)c2cc(Br)c(Br)[nH]2)=C([n+]2cccc(O)c2)N1 (stereo not given)
pIC50 [34]: 4.68
pIC50 [35]: 4.68

Compound: O=C(NNC(=S)Nc1ccc(Cl)cc1)c1cc(Br)c(Br)[nH]1
pIC50 [20]: 7.52
pIC50 [21]: 7.52
pIC50 [22]: 7.52

Compound: O=C(NNC(=S)Nc1ccc([N+](=O)[O-])cc1)c1cc(Br)c(Br)[nH]1
pIC50 [20]: 7.52
pIC50 [21]: 7.52
pIC50 [22]: 7.52

Compound: NC1=N[C@@]23CCCN2C(=O)c2c([nH]c(Br)c2Br)[C@H]3N1
pIC50 [18]: 4.69

More lines, main results first:

pEC50 [2]: 5.80
pEC50 [3]: 5.93
pEC50 [4]: 6.55
Compound: O=C1NC2n3c(cc(Br)c3Br)C(=O)N3CCCC23N1 (stereo not given)
pEC50 [5]: 6.28
pEC50 [6]: 6.55
pEC50 [7]: 5.41

pIC50 [14]: 8.52
pIC50 [15]: 8.52
Compound: NC1=N/C(=C2\CCNC(=O)c3[nH]c(Br)cc32)C(=O)N1

pIC50 [16]: 4.53
pIC50 [17]: 4.73
Compound: N=C1NC(=O)/C(=C2/CCNC(=O)c3[nH]cc(Br)c32)N1

pIC50 [19]: 5.46
Compound: NC1=NC(=O)/C(=C2\CCNC(=O)c3[nH]c4ccccc4c32)N1

pIC50 [23]: 4.74
Compound: Cn1cc(Br)cc1C(=O)NC[C@H]1CC2N=C(N)NC2[C@@H](c2c[nH]c(N)n2)[C@@H]1CNC(=O)c1cc(Br)cn1C (stereo not given in full)

pIC50 [24]: 4.45
pIC50 [25]: 5.00
pIC50 [26]: 5.10
pIC50 [27]: 4.50
pIC50 [28]: 4.89
pIC50 [29]: 4.48
Compound: NC1=NC(=O)C([C@@H]2[C@@H](CNC(=O)c3cc(Br)c[nH]3)[C@H](CNC(=O)c3cc(Br)c[nH]3)[C@H]2C2NC(N)=NC2=O)N1 (stereo not given in full)

pIC50 [23]: 4.74
Compound: Cn1c(Br)ccc1C(=O)NC[C@H]1CC2N=C(N)NC2[C@@H](c2c[nH]c(N)n2)[C@@H]1CNC(=O)c1cc(Br)c[nH]1 (stereo not given in full)

pIC50 [16]: 4.58
Compound: NC1NC[C@H](O)[C@@]2(N1)[C@H]1[C@H](CN3C(=O)c4cc(Br)cn4[C@H]4NC(N)N[C@@]413)[C@H](CNC(=O)c1cc(Br)c(Br)[nH]1)[C@@H]2Cl (stereo not given in full)
pIC50 [34]: 4.57
pIC50 [1]: 4.57

pIC50 [23]: 4.74
Compound: Cn1cc(Br)cc1C(=O)NC[C@H]1CC2N=C(N)NC2[C@@H](c2c[nH]c(N)n2)[C@@H]1CNC(=O)c1cc(Br)c[nH]1 (stereo not given in full)
